Test system: c-myc protein
Assay: Efficacy study in Ep-myc mice: c-myc protein in lymph nodes by western blot
Type: in vivo
Settings: SC 60 mg/kg over 2 days, euthanized day 3, western blot
Description: FIGS. 8A-D show organ distribution after intravenous and subcutaneous administration of indicated PNAs. (8A) The organ distribution of γPNA-NLS TAMRA after intravenous (IV) and subcutaneous (SC) administration in transgenic mice model of B-cell lymphoma (Ep-myc). γPNA-NLS TAMRA was administered at 5 mg/kg via IV and SC route and organ distribution was determined via IVIS imaging after 24 h. (8B) Confocal microscopy images of different lymph nodes (LNs) after IV and SC injection of γPNA-NLS TAMRA. Blue indicates DAPI and red indicated TAMRA. Scale bar, 30 μm. (8C) C-myc protein levels in brachial lymph nodes of γPNA5-NLS treated mice in comparison to the control (untreated mice). N=4 mice per group. (8D) C-myc protein levels in axillary lymph nodes of γPNA5-NLS treated mice in comparison to the control (untreated mice). N=4 mice per group. […]
Western blot analysis: Total protein was extracted from collected lymphocytes using 1×RIPA buffer (Cell signaling technology, USA) containing protease inhibitor. The concentration of protein was determined using absorbance-based DC protein assay (Bio-Rad, USA). […] The bands were detected using anti-rabbit IgG HRP linked secondary antibody (Cell signaling technology, #7074) (1:2000 dilution, 5% milk in TBST) and HRP substrate (Millipore sigma). The blots were imaged using ChemiDoc imager (Bio-Rad, USA) and band intensities were quantified using imageJ.

X3TCCCTCCCCTCCCTTCTTTTTCCX2 (gamma PNA; NLS peptide; gammaPNA; misc_feature 1 JJJTJJJT-linker- is covalently linked to the backbone, wherein J is pseudoisocytosine and the linker is 11-Amino-3,6,9-Trioxaundecanoic Acid (DCHA), represented as -OOO-; misc_feature 23 -K-linker-SEQ ID NO: 5 is covalently linked to the backbone, wherein the linker is 11-Amino-3,6,9-Trioxaundecanoic Acid (DCHA), represented as -OOO-; modified_base 1..23 OTHER; peptide nuc) [γPNA5-NLS]
c-myc protein levels in brachial and axillary lymph nodes in comparison to untreated group: substantial decrease in c-myc protein levels
